Measurements from US20100280053A1, “CyclopropylmethYl-[7-(5,7-dimethyl-benzo[1,2,5]thiodiazol-4-yl)-2,5,6-trimethyl-7H-pyrrolo[2,3-d]pyrimidin-4-yl]-4-propyl-amine as a CRF Antagonist” (NOVARTIS AG, priority 2003, published 2010).

Biological target: T1, human recombinant CRF1 (Homo sapiens, UniProt P34998)
T1 construct: expressed in transfected cells
T1 sequence (P34998 24-415): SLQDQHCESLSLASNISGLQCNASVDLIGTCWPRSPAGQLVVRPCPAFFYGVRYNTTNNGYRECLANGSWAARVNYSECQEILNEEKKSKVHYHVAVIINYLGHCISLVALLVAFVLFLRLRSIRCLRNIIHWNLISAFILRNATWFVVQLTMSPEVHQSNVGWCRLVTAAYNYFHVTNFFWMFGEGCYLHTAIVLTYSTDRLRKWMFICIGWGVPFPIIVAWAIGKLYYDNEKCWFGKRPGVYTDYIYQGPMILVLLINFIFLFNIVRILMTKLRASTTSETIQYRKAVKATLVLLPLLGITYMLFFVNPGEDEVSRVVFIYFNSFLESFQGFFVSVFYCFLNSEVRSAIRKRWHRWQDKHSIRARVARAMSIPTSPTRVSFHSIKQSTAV
Experiment: Inhibition of CRF-stimulated cyclic AMP accumulation in CHO cells expressing human recombinant CRF1
Assay type: cell-based
Details: CRF concentration-response curves in presence of antagonist (1 nM-1 μM)
Procedure: Chinese hamster ovary (CHO) cells expressing human recombinant CRF1 (Chen et al., Proc Natl Acad Sci USA 90, 8967-8971, 1993) are propagated in Dulbecco's modified Eagle medium supplemented with 10% foetal calf serum, non-essential aminoacids, 100 U/ml penicillin, 100 mg/l streptomycin and 1 g/l geneticin (G418). For cyblic AMP determinations, cells are grown to confluence in 24-multiwell plates. Stimulation of cyclic AMP accumulation by CRF (human/rat form) is measured in intact cells, using the [^3H]adenine labelling technique, as described previously (Schoeffter et al., Neuropharmacology 36, 429-437, 1997).
Concentration-response curves for CRF are constructed in the presence of putative antagonists (1 nM-1 μM) or vehicle (dimethyl sulfoxide 1% vol). IC50 values of antagonists are calculated by fitting the percent inhibition of the effect of CRF (10 nM) by increasing concentrations of the antagonists. The fit is done using the nonlinear logistic function of the Origin software package (OriginLab Corporation, Northampton, Mass., USA).

mode of CRF1 receptor antagonism: non-competitive CRF1 receptor antagonist
SMILES: CCCN(CC1CC1)c1nc(C)nc2c1c(C)c(C)n2-c1c(C)cc(C)c2nsnc12 [compound of formula A, Cyclopropylmethyl-[7-(5,7-dimethyl-benzo[1,2,5]thiadiazol-4-yl)-2,5,6-trimethyl-7H-pyrrolo[2,3-d]pyrimidin-4-yl]-propyl-amine]
